# Key:
# [1] = target: Serotonin 3 (5-HT3) receptor; assay: Binding affinity towards human 5-hydroxytryptamine 3 serotonin membrane receptor using [3H]GR-65630 at 10 uM
# [2] = target: Neuronal acetylcholine receptor subunit alpha-7 (Homo sapiens, UniProt P36544); assay: Binding affinity towards human nicotinic acetylcholine receptor alpha 7 expressed in GH4C1 cell using [3H]methyllycaconitine; format: cell-based, GH4-C1
# [3] = target: Serotonin 3 (5-HT3) receptor; assay: Binding affinity for human 5-hydroxytryptamine 3 serotonin membrane receptor using [3H]GR-65630
# Chain of Neuronal acetylcholine receptor subunit alpha-7 (P36544 whole entry): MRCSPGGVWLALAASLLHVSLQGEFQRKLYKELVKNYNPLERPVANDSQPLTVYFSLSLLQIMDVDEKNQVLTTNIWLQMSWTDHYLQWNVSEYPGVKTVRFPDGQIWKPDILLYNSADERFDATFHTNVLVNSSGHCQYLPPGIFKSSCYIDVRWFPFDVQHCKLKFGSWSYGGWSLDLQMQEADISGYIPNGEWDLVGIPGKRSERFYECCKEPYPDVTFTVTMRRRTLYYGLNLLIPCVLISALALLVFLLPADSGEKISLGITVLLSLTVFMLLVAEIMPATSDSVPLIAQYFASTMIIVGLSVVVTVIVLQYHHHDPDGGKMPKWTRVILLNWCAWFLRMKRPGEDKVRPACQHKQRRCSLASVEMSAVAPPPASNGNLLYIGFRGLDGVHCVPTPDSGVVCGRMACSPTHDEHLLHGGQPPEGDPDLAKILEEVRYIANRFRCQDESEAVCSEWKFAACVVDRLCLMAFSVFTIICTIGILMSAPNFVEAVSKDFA
SMILES,inhibition [1] [%],Ki [2] [nM],Ki [3] [nM]
O=C(NC1CN2CCC1CC2)c1cc(-c2ccccc2)sn1 (stereo not given),28,4.1,–
O=C(NC1CN2CCC1CC2)c1ccc(-c2ccccc2)s1 (stereo not given),–,3.4,2020
O=C(NC1CN2CCC1CC2)c1csc(-c2ccccc2)n1 (stereo not given),–,121,665
CCN1C[C@]2(COC(=O)c3ccccc3N3C(=O)C[C@H](C)C3=O)CC[C@H](OC)[C@@]34[C@@H]5C[C@H]6[C@H](OC)[C@@H]5[C@](O)(C[C@@H]6OC)[C@](O)([C@@H](OC)[C@H]23)[C@@H]14 [METHYLLYCACONITINE],16.5,7.3,–
O=C(N[C@H]1CN2CCC1CC2)c1ccc(-c2ccccc2)s1 (racemic),–,3.4,2020
CC(=O)O.O=C(N[C@H]1CN2CCC1CC2)c1ccc(-c2ccccc2)s1,24,1.8,–
O=C(NC1CN2CCC1CC2)c1ccc(-c2cccs2)s1 (stereo not given),–,1.1,1040
O=C(N[C@@H]1CN2CCC1CC2)c1ccc(-c2ccccc2)s1,–,26.9,1550
O=C(N[C@H]1CN2CCC1CC2)c1ccc(-c2ccccn2)s1,15.5,1.3,–
O=C1NC[C@]2(CN3CCC2CC3)O1,2.5,–,–
c1ccc(-c2cnc3c(c2)C[C@@]2(CN4CCC2CC4)O3)cc1,–,3.1,73
COc1ccccc1-c1ccc(C(=O)NC2CN3CCC2CC3)s1 (stereo not given),27,268,–
O=C(NC1CN2CCC1CC2)c1ccc(-c2ccccn2)s1 (stereo not given),28,6.9,–
O=C(NC1CN2CCC1CC2)c1csc(-c2ccccc2)c1 (stereo not given),–,16.7,409
c1cncc(CNc2cnc3c(c2)C[C@@]2(CN4CCC2CC4)O3)c1,–,–,2220
O=C(NC1CN2CCC1CC2)c1ccc(-c2ccccc2Cl)s1 (stereo not given),45,525,–

# — ChEMBL document CHEMBL1143459, “High affinity ligands for the alpha7 nicotinic receptor that show no cross-reactivity with the 5-HT3 receptor” (Bioorg Med Chem Lett, 2005)
